# Experiments:
# [1] = target: Serine/threonine-protein kinase TAO1 (Homo sapiens) (UniProt Q7L7X3); details: Compound concentration 100.0 nM
# [2] = target: Receptor tyrosine-protein kinase erbB-4 (Homo sapiens) (UniProt Q15303); details: Compound concentration 100.0 nM
# [3] = tested on: Receptor-type tyrosine-protein kinase FLT3 (Homo sapiens), P36888 [D835Y]; details: Compound concentration 100.0 nM
# Histamine H1 receptor = Histamine H1 receptor (Homo sapiens, UniProt P35367); details: Compound concentration 10.0 uM
# [4] = target: Mitogen-activated protein kinase kinase kinase 9 (Homo sapiens) (UniProt P80192); details: Compound concentration 100.0 nM
# [5] = target: Casein kinase I isoform gamma-2 (Homo sapiens) (UniProt P78368); details: Compound concentration 100.0 nM
# [6] = target: Ribosomal protein S6 kinase alpha-4 (Homo sapiens) (UniProt O75676); details: Compound concentration 100.0 nM
# [7] = tested on: Phosphatidylinositol 4,5-bisphosphate 3-kinase catalytic subunit alpha isoform (Homo sapiens), P42336 [H1047Y]; details: Compound concentration 100.0 nM
# [8] = target: Mitogen-activated protein kinase kinase kinase 11 (Homo sapiens) (UniProt Q16584); details: Compound concentration 100.0 nM
# [9] = target: Dual serine/threonine and tyrosine protein kinase (Homo sapiens) (UniProt Q6XUX3); details: Compound concentration 100.0 nM
# [10] = tested on: Receptor-type tyrosine-protein kinase FLT3 (Homo sapiens), P36888 [UNDEFINED MUTATION]; details: Compound concentration 100.0 nM
# [11] = target: Cyclin-dependent kinase 11A (Homo sapiens) (UniProt Q9UQ88); details: Compound concentration 100.0 nM
# [12] = target: Tyrosine-protein kinase Fgr (Homo sapiens) (UniProt P09769); details: Compound concentration 100.0 nM
# [13] = target: Mitogen-activated protein kinase kinase kinase 4 (Homo sapiens) (UniProt Q9Y6R4); details: Compound concentration 100.0 nM
# [14] = target: cGMP-dependent protein kinase 1 (Homo sapiens) (UniProt Q13976); details: Compound concentration 100.0 nM
# [15] = target: Serine/threonine-protein kinase 26 (Homo sapiens) (UniProt Q9P289); details: Compound concentration 100.0 nM
# [16] = target: Transient receptor potential cation channel subfamily M member 6 (Homo sapiens) (UniProt Q9BX84); details: Compound concentration 100.0 nM
# [17] = target: Serine/threonine-protein kinase Nek3 (Homo sapiens) (UniProt P51956); details: Compound concentration 100.0 nM
# [18] = target: MAP kinase-activated protein kinase 5 (Homo sapiens) (UniProt Q8IW41); details: Compound concentration 100.0 nM
# [19] = target: Uncharacterized serine/threonine-protein kinase SBK3 (Homo sapiens) (UniProt P0C264); details: Compound concentration 100.0 nM
# [20] = target: Eukaryotic translation initiation factor 2-alpha kinase 1 (Homo sapiens) (UniProt Q9BQI3); details: Compound concentration 100.0 nM
# [21] = target: Mitogen-activated protein kinase kinase kinase 5 (Homo sapiens) (UniProt Q99683); details: Compound concentration 100.0 nM
# [22] = target: Serine/threonine-protein kinase PLK2 (Homo sapiens) (UniProt Q9NYY3); details: Compound concentration 100.0 nM
# [23] = tested on: Hepatocyte growth factor receptor (Homo sapiens), P08581 [Y1235D]; details: Compound concentration 100.0 nM
# [24] = target: Phosphatidylinositol 4-phosphate 3-kinase C2 domain-containing subunit beta (Homo sapiens) (UniProt O00750); details: Compound concentration 100.0 nM
# [25] = target: Ephrin type-B receptor 3 (Homo sapiens) (UniProt P54753); details: Compound concentration 100.0 nM
# [26] = target: Tyrosine-protein kinase ITK/TSK (Homo sapiens) (UniProt Q08881); details: Compound concentration 100.0 nM
# [27] = target: Protein kinase C theta type (Homo sapiens) (UniProt Q04759); details: Compound concentration 100.0 nM
# [28] = target: Platelet-derived growth factor receptor alpha (Homo sapiens) (UniProt P16234); details: Compound concentration 100.0 nM
# [29] = target: Mitogen-activated protein kinase 7 (Homo sapiens) (UniProt Q13164); details: Compound concentration 100.0 nM
# [30] = target: Serine/threonine-protein kinase haspin (Homo sapiens) (UniProt Q8TF76); details: Compound concentration 100.0 nM
# [31] = target: Tyrosine-protein kinase JAK3 (Homo sapiens) (UniProt P52333); details: Compound concentration 100.0 nM
# [32] = target: Mitogen-activated protein kinase 3 (Homo sapiens) (UniProt P27361); details: Compound concentration 100.0 nM
# [33] = target: Serine/threonine-protein kinase RIO3 (Homo sapiens) (UniProt O14730); details: Compound concentration 100.0 nM
# [34] = tested on: Mast/stem cell growth factor receptor Kit (Homo sapiens), P10721 [L576P]; details: Compound concentration 100.0 nM
# [35] = target: Sodium-dependent dopamine transporter (Homo sapiens) (UniProt Q01959); details: Compound concentration 10.0 uM
# [36] = target: cAMP-dependent protein kinase catalytic subunit alpha (Homo sapiens) (UniProt P17612); details: Compound concentration 100.0 nM
# [37] = target: Microtubule-associated serine/threonine-protein kinase 1 (Homo sapiens) (UniProt Q9Y2H9); details: Compound concentration 100.0 nM
# [38] = target: Cyclin-dependent kinase 4 (Homo sapiens) (UniProt P11802); details: Compound concentration 100.0 nM
# [39] = target: Serine/threonine-protein kinase 17B (Homo sapiens) (UniProt O94768); details: Compound concentration 100.0 nM
# [40] = target: Bone morphogenetic protein receptor type-2 (Homo sapiens) (UniProt Q13873); details: Compound concentration 100.0 nM
# [41] = target: Macrophage colony-stimulating factor 1 receptor (Homo sapiens) (UniProt P07333); details: Compound concentration 100.0 nM
# [42] = target: RAC-beta serine/threonine-protein kinase (Homo sapiens) (UniProt P31751); details: Compound concentration 100.0 nM
# [43] = tested on: Phosphatidylinositol 4,5-bisphosphate 3-kinase catalytic subunit alpha isoform (Homo sapiens), P42336 [E545A]; details: Compound concentration 100.0 nM
# [44] = target: Mitogen-activated protein kinase kinase kinase 3 (Homo sapiens) (UniProt Q99759); details: Compound concentration 100.0 nM
# Sequence of Tyrosine-protein kinase ITK/TSK (Homo sapiens) (Q08881 whole entry): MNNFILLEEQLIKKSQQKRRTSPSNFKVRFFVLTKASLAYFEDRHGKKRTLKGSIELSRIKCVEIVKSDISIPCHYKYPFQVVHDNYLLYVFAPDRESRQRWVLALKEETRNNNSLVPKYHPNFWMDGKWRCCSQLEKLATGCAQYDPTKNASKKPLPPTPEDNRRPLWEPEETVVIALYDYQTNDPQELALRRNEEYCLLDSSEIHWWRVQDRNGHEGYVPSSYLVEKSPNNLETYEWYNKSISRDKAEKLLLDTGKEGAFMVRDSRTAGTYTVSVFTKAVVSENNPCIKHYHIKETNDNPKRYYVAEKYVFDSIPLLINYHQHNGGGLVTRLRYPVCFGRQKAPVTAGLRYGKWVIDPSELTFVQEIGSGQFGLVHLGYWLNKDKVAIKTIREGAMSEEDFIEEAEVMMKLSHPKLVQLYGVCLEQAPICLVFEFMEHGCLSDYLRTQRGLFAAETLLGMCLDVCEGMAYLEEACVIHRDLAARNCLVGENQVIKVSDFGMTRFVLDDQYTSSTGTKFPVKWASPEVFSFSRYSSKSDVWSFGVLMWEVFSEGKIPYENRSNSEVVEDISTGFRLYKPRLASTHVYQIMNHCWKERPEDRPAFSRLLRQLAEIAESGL
# Sequence of Phosphatidylinositol 4-phosphate 3-kinase C2 domain-containing subunit beta (Homo sapiens) (O00750 whole entry, the tested form may be a part): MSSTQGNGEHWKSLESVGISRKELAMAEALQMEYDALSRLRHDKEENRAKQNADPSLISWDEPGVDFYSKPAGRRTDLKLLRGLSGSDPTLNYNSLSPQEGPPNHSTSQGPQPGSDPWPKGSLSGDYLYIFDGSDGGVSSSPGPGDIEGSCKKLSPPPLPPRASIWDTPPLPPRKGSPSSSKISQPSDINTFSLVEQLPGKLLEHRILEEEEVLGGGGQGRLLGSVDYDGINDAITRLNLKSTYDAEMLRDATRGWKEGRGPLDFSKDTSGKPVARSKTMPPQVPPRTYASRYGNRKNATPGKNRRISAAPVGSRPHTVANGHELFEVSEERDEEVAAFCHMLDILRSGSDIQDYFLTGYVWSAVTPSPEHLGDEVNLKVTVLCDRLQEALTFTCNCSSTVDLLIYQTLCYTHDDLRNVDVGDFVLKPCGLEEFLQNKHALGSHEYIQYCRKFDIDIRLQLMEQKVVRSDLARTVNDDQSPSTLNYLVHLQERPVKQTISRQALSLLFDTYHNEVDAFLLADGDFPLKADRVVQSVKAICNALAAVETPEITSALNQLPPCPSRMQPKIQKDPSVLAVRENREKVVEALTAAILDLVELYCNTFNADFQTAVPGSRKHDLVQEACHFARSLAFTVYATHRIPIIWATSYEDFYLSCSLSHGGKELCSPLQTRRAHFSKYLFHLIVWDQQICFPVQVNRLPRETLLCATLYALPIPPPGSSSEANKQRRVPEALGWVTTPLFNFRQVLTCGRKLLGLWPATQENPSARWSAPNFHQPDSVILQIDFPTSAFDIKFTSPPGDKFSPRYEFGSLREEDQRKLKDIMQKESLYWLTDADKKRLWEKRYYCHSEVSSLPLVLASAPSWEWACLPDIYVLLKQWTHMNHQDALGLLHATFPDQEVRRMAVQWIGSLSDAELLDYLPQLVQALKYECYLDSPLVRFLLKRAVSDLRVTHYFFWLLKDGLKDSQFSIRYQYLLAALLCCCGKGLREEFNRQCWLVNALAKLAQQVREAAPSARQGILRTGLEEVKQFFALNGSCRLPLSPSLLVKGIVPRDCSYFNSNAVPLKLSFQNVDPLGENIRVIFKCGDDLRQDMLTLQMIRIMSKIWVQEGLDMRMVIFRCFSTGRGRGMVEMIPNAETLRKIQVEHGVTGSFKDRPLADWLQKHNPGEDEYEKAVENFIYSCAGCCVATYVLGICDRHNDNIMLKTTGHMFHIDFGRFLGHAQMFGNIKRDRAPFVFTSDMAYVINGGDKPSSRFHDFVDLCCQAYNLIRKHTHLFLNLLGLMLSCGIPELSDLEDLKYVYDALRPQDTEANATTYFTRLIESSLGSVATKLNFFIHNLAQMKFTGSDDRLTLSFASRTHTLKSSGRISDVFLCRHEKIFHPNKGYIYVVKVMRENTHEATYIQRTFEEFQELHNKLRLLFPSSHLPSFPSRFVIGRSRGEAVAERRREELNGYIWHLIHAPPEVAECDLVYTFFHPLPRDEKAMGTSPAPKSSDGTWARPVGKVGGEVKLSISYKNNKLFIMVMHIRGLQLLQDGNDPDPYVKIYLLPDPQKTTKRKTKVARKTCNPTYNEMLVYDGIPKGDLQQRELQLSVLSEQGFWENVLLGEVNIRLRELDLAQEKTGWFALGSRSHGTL
# Sequence of Macrophage colony-stimulating factor 1 receptor (Homo sapiens) (P07333 whole entry): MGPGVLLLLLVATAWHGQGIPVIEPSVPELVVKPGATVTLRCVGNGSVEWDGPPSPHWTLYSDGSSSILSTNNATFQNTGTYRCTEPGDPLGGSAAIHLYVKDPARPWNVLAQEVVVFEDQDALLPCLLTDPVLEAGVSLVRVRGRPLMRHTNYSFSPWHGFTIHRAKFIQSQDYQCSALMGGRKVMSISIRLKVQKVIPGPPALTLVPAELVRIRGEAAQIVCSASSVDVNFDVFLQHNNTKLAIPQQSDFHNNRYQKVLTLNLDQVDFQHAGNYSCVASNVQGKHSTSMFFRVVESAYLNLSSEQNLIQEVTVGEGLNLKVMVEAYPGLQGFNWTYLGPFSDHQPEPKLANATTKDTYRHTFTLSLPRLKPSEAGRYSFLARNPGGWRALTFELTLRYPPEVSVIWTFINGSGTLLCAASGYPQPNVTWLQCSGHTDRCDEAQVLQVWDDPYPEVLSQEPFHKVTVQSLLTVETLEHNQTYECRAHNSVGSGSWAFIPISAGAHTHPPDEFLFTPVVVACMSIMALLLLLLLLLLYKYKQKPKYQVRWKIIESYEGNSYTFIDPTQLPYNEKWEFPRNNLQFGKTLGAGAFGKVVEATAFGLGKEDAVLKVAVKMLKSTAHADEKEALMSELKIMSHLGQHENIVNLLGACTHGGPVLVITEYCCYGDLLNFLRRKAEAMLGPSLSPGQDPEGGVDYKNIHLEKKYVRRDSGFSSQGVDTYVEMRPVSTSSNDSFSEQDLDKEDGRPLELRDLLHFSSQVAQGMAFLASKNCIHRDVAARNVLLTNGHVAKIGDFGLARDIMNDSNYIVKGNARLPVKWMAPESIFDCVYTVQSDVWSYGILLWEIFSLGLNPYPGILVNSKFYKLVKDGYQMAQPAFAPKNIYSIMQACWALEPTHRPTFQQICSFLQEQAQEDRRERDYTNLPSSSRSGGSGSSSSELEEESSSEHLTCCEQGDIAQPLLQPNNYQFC
# Sequence of Platelet-derived growth factor receptor alpha (Homo sapiens) (P16234 whole entry): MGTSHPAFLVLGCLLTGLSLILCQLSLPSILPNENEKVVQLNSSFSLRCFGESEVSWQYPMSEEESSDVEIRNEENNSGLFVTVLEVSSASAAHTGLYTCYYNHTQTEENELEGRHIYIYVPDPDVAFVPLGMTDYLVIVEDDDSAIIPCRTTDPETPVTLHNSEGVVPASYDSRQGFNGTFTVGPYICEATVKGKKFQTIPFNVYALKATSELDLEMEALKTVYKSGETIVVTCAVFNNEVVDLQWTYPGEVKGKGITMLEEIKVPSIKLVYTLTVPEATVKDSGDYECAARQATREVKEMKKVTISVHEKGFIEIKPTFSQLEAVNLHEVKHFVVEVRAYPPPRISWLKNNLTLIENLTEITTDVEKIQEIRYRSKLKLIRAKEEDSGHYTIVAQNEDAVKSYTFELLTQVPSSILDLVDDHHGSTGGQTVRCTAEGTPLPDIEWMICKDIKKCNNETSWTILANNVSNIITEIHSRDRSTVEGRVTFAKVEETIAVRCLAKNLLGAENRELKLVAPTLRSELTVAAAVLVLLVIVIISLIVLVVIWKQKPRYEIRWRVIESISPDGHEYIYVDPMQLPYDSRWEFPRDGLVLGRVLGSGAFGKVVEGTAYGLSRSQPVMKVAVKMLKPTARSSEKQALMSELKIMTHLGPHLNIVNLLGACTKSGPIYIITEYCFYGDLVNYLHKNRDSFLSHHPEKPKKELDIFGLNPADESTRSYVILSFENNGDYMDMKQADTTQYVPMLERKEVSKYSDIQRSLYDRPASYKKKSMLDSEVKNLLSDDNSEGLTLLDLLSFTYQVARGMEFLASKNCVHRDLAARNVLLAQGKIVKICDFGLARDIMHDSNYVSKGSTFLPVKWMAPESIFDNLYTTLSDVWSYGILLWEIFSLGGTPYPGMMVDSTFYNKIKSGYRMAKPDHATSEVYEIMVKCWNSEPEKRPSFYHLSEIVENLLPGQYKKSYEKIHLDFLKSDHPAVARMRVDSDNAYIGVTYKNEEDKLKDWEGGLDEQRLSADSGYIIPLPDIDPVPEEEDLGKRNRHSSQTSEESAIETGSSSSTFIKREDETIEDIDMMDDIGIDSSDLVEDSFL
# Sequence of Serine/threonine-protein kinase 26 (Homo sapiens) (Q9P289 2-416 limits assumed): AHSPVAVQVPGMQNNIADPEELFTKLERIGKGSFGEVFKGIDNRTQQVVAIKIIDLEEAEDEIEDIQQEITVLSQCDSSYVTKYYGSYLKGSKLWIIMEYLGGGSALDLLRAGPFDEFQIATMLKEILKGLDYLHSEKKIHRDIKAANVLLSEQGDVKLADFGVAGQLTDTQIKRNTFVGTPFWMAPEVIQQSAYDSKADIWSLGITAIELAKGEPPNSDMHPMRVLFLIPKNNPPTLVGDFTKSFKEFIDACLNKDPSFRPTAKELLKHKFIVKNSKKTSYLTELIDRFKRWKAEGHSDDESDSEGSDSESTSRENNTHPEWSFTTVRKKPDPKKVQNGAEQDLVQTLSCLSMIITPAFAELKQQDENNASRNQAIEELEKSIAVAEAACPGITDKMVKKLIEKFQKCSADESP
# Sequence of Serine/threonine-protein kinase 17B (Homo sapiens) (O94768 whole entry): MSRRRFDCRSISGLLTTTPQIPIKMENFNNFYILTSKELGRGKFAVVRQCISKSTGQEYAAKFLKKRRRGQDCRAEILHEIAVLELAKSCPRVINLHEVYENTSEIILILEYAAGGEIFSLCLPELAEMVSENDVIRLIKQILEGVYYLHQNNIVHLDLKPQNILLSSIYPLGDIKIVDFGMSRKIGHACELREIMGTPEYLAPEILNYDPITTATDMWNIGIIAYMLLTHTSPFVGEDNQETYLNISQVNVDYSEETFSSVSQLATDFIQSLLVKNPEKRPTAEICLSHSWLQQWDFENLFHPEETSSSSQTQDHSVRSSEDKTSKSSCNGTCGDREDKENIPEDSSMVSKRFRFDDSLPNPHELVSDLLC
structure (smiles),measurement,setting,value
Nc1c(C(=O)NCc2ccc(C(=O)NCCCC3CCCCC3)cc2)cnn1-c1ccccc1 [SR-318],residual activity,[1],91%
same,residual activity,[2],89%
same,residual activity,[3],100%
same,inhibition,Histamine H1 receptor,14.7%
same,residual activity,[4],96%
same,residual activity,[5],94%
same,residual activity,[6],98%
same,residual activity,[7],77%
same,residual activity,[8],76%
same,residual activity,[9],100%
same,residual activity,[10],100%
same,residual activity,[11],100%
same,residual activity,[12],100%
same,residual activity,[13],81%
same,residual activity,[14],74%
same,residual activity,[15],97%
same,residual activity,[16],100%
same,residual activity,[17],100%
same,residual activity,[18],93%
same,residual activity,[19],87%
same,residual activity,[20],100%
same,residual activity,[21],81%
same,residual activity,[22],100%
same,residual activity,[23],94%
same,residual activity,[24],99%
same,residual activity,[25],96%
same,residual activity,[26],93%
same,residual activity,[27],100%
same,residual activity,[28],100%
same,residual activity,[29],78%
same,residual activity,[30],100%
same,residual activity,[31],100%
same,residual activity,[32],94%
same,residual activity,[33],100%
same,residual activity,[34],73%
same,inhibition,[35],26.8%
same,residual activity,[36],100%
same,residual activity,[37],100%
same,residual activity,[38],100%
same,residual activity,[39],94%
same,residual activity,[40],100%
same,residual activity,[41],91%
same,residual activity,[42],96%
same,residual activity,[43],100%
same,residual activity,[44],100%
O=C(NCCCC1CCCCC1)c1ccc(CNC(=O)c2cnn(-c3ccccc3)c2C(F)(F)F)cc1 [SR-321],residual activity,[1],96%
same,residual activity,[2],100%
same,residual activity,[3],100%
same,inhibition,Histamine H1 receptor,63%
same,residual activity,[4],100%
same,residual activity,[5],96%
same,residual activity,[6],90%
same,residual activity,[7],100%
same,residual activity,[8],100%
same,residual activity,[9],100%
same,residual activity,[10],100%
same,residual activity,[11],100%
same,residual activity,[12],95%
same,residual activity,[13],100%
same,residual activity,[14],100%
same,residual activity,[15],93%
same,residual activity,[16],94%
same,residual activity,[17],100%
same,residual activity,[18],100%
same,residual activity,[19],100%
same,residual activity,[20],95%
same,residual activity,[21],91%
same,residual activity,[22],100%
same,residual activity,[23],100%
same,residual activity,[24],86%
same,residual activity,[25],79%
same,residual activity,[26],100%
same,residual activity,[27],100%
same,residual activity,[28],92%
same,residual activity,[29],100%
same,residual activity,[30],100%
same,residual activity,[31],100%
same,residual activity,[32],93%
same,residual activity,[33],100%
same,residual activity,[34],100%
same,inhibition,[35],22.3%
same,residual activity,[36],100%
same,residual activity,[37],88%
same,residual activity,[38],96%
same,residual activity,[39],100%
same,residual activity,[40],100%
same,residual activity,[41],100%
same,residual activity,[42],100%
same,residual activity,[43],100%
same,residual activity,[44],100%
